Calls of active or inactive are those of the source.
What was measured:
[1] = Half life in C57BL/6 mouse at 0.3 mg/kg, iv measured for 24 hrs by LC-MS/MS analysis; format: ADME, organism-based; conditions: in vivo
[2] = Oral bioavailability in Beagle dog at 1 mg/kg administered via oral gavage and measured for 24 hrs by LC-MS/MS analysis; format: ADME, organism-based, Canis lupus familiaris; conditions: in vivo
[3] = Oral bioavailability in cynomolgus monkey at 1 mg/kg administered via nasal gavage measured for 24 hrs by LC-MS/MS analysis; format: ADME, organism-based, Macaca fascicularis; conditions: in vivo
[4] = Metabolic stability in human liver microsomes assessed as intrinsic clearance at 1 uM in presence of NADPH regenerating system measured for 45 mins by LC-MS/MS analysis; format: ADME, Microsome; conditions: read-out: CLH
[5] = Oral bioavailability in C57BL/6 mouse at 10 mg/kg administered via oral gavage and measured for 24 hrs by LC-MS/MS analysis; format: ADME, organism-based; conditions: in vivo; for bioavailability: C57BL/6, mouse
[6] = Ratio of unbound drug concentration in C57BL/6 mouse brain to plasma at 0.3 mg/kg, iv measured for 24 hrs by LC-MS/MS analysis; format: ADME, organism-based; conditions: brain and plasma, read-out: K(p,uu,brain)
[7] = Metabolic stability in mouse liver microsomes assessed as intrinsic clearance at 1 uM in presence of NADPH regenerating system measured for 45 mins by LC-MS/MS analysis; format: ADME, Microsome; conditions: read-out: CLH
[8] = Half life in cynomolgus monkey at 1 mg/kg, po or 0.3 mg/kg, iv measured for 24 hrs by LC-MS/MS analysis; format: ADME, organism-based, Macaca fascicularis; conditions: in vivo
[9] = Oral bioavailability in Sprague-Dawley rat at 3 mg/kg administered via oral gavage and measured for 24 hrs by LC-MS/MS analysis; format: ADME, organism-based; conditions: in vivo
[10] = Half life in Beagle dog at 1 mg/kg, po or 0.3 mg/kg, iv measured for 24 hrs by LC-MS/MS analysis; format: ADME, organism-based, Canis lupus familiaris; conditions: in vivo
[11] = Half life in Sprague-Dawley rat at 3 mg/kg, po or 0.3 mg/kg, iv measured for 24 hrs by LC-MS/MS analysis; format: ADME, organism-based; conditions: in vivo
[12] = Metabolic stability in rat liver microsomes assessed as intrinsic clearance at 1 uM in presence of NADPH regenerating system measured for 45 mins by LC-MS/MS analysis; format: ADME, Microsome; conditions: read-out: CLH
[13] = molecular target: Voltage-gated inwardly rectifying potassium channel KCNH2 (Homo sapiens, UniProt Q12809)
Description: Inhibition of hERG expressed in CHO cells at -80 mV holding potential by QPatch automated electrophysiology assay

Mus musculus [14] = assay: (§1) Antiallodynic activity in cisplatin-induced mechanical allodynia C57BL/6 mouse model assessed as increase in paw withdrawal threshold at 30 mg/kg, po stimulated with cisplatin on day 1 to 5 and 10 to 15 followed by daily administration of compound from day 16 and measured for 35 days by von frey test; format: functional, organism-based; conditions: time 20.0 day
[15] = molecular target: T1, Dual specificity mitogen-activated protein kinase kinase 5 (Homo sapiens) (UniProt Q13163); assay: Inhibition of MEK5 (unknown origin) at 1 uM relative to control
T1 sequence (whole entry): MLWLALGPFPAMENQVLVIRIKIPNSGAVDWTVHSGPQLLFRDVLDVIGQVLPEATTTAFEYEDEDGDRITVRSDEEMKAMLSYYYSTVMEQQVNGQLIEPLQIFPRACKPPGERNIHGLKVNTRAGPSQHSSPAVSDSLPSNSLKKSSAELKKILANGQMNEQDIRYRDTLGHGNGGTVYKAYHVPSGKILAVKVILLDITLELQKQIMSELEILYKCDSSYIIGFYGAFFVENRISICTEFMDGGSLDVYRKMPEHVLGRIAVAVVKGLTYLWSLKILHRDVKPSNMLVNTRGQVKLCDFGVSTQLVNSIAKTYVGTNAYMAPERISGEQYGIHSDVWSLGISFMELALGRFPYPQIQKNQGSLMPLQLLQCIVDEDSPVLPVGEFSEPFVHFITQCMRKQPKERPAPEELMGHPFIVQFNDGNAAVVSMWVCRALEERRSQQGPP

Mus musculus [16] = assay: as §1, with “from day 6 to 16 and” for “from day 16 and”, “measured for 30 days by” for “measured for 35 days by”; format: functional, organism-based; conditions: time 25.0 day
[17] = Toxicity in rat by GLP toxicity study; conditions: in vivo
[18] = Binding affinity to full length human DLK (1 to 859 residues)/NFkappaB DNA binding domain (unknown origin) fusion protein transfected in HEK293 cells assessed as dissociation constant incubated for 1 hr by Kinomescan assay; format: cell-based
[19] = AUClast in C57BL/6 mouse at 10 mg/kg administered via oral gavage and measured for 24 hrs by LC-MS/MS analysis; format: ADME, organism-based; design: time 24 hrs, dose 10 mg/kg, route po; conditions: in vivo
[20] = Half life in C57BL/6 mouse at 0.3 mg/kg, iv administered via tail vein and measured for 24 hrs by LC-MS/MS analysis; format: ADME, organism-based; conditions: in vivo
[21] = molecular target: T2, Mitogen-activated protein kinase kinase kinase 12 (Homo sapiens, UniProt Q12852); assay: Inhibition of doxycycline-inducible human DLK transfected in HEK293 cells assessed as reduction in c-Jun phosphorylation at Ser63 residue incubated for 5 hrs; format: cell-based
T2 sequence (Q12852 whole entry): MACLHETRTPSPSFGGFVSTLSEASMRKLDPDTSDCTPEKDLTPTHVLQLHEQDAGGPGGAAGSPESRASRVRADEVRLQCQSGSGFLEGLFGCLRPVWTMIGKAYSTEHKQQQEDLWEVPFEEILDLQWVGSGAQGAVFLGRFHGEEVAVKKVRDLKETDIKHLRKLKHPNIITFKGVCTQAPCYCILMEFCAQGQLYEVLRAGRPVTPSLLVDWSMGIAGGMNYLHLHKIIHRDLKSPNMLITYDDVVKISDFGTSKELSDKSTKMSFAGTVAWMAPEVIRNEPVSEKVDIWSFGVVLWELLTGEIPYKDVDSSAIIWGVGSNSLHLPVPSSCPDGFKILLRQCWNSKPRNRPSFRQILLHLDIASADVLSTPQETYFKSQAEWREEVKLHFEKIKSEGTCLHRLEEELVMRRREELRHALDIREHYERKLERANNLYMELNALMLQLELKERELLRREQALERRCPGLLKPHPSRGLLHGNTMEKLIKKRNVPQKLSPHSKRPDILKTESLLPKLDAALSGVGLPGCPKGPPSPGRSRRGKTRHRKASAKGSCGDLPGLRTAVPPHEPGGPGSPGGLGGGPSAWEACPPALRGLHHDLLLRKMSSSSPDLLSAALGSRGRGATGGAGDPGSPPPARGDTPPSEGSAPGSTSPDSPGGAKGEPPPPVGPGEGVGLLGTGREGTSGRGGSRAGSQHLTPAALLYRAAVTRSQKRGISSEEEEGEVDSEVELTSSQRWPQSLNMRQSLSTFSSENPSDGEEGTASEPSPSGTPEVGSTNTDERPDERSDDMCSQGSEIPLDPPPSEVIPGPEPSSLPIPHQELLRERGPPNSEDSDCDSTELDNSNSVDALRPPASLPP

[22] = Volume of distribution at steady state in C57BL/6 mouse at 0.3 mg/kg, iv administered via tail vein and measured for 24 hrs by LC-MS/MS analysis; format: ADME, organism-based; conditions: in vivo, read-out: Vdss
[23] = Cmax in C57BL/6 mouse at 10 mg/kg administered via oral gavage and measured for 24 hrs by LC-MS/MS analysis; format: ADME, organism-based; design: dose 10 mg/kg, time 24 hrs, route po; conditions: in vivo

Sequence of Voltage-gated inwardly rectifying potassium channel KCNH2 (Q12809 whole entry): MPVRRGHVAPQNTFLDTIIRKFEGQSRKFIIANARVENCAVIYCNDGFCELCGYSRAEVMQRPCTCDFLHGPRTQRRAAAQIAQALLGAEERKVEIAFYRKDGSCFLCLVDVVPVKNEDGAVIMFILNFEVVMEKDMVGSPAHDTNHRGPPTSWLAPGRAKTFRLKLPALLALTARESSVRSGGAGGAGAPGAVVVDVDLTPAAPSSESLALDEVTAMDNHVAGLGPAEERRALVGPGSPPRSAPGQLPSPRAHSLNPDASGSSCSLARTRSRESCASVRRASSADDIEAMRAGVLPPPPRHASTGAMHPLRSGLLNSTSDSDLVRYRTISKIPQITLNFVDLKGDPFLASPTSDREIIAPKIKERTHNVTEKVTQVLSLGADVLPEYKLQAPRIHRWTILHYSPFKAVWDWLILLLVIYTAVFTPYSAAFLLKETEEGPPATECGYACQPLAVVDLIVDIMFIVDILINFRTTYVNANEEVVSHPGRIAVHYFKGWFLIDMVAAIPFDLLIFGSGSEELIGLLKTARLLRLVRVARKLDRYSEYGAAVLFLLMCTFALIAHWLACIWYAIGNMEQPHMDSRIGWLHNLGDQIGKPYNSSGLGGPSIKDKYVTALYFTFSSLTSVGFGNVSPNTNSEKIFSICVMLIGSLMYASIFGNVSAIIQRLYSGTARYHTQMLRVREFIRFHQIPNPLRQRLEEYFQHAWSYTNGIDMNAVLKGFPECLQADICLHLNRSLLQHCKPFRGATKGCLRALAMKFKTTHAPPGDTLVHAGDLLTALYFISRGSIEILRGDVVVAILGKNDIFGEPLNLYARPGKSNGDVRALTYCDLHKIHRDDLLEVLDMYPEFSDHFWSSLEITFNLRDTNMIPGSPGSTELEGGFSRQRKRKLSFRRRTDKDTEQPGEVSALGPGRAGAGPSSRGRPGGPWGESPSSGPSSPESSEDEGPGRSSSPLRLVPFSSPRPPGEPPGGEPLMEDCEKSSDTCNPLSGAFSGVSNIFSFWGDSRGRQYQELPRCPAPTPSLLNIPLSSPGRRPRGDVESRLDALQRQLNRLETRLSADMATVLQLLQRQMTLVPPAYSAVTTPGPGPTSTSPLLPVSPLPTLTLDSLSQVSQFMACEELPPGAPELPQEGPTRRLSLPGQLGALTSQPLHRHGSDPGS

Structure (SMILES) | CLint scaled at 1 µM [4] | Kp uu at 24 h [6] | CLint scaled at 1 µM [7] | CLint scaled at 1 µM [12] | Kd [18] | also measured
Nc1ncc(-c2cn(C34CC(N5CCOCC5)(C3)C4)c(C3CC3)n2)cc1OC(F)(F)F | 2 mL/min/kg | 0.73 | 12 mL/min/kg | 12 mL/min/kg |  | half-life [1]: 3.5 h; bioavailability [2]: 77%; bioavailability [3]: 66%; bioavailability [5]: > 100%; half-life [8]: 4.6 h; bioavailability [9]: > 100%; half-life [10]: 10.5 h; half-life [11]: 3.4 h
Nc1ncc(-c2cc([C@H]3[C@@H]4CN(C5COC5)C[C@@H]43)n(CC3CC3)n2)cc1C(F)(F)F |  |  |  |  | 13 nM | 
CC(C)c1nc(-c2cnc(N)c(C(F)(F)F)c2)cn1C1CC1 |  |  |  |  | 130 nM | 
CC(C)c1nc(-c2cnc(N)c(C(F)(F)F)c2)cn1C1CCCC1 | 362 mL/min/kg |  | 2670 mL/min/kg | 238 mL/min/kg | 225 nM | 
Nc1ncc(-c2cn(C34CC(N5CCOCC5)(C3)C4)c(C3CC3)n2)cc1C(F)(F)F | 5 mL/min/kg | 0.34 | 16 mL/min/kg | 10 mL/min/kg | 13 nM | half-life [1]: 3.8 h
CC(C)c1nc(-c2cnc(N)c(C(F)(F)F)c2)cn1C12CC(N3CCOCC3)(C1)C2 | 7 mL/min/kg | 0.14 | 6 mL/min/kg |  | 12 nM | half-life [1]: 3.3 h
Nc1ncc(-c2cn(C34CC(N5CCOCC5)(C3)C4)c(CC3CC3)n2)cc1C(F)(F)F | 6 mL/min/kg |  |  | 5 mL/min/kg |  | 
CC(C)Cc1nc(-c2cnc(N)c(C(F)(F)F)c2)cn1C12CC(N3CCOCC3)(C1)C2 | 9 mL/min/kg |  |  | 11 mL/min/kg | 6.1 nM | 
CC(C)(C)Cc1nc(-c2cnc(N)c(C(F)(F)F)c2)cn1C12CC(N3CCOCC3)(C1)C2 | 14 mL/min/kg |  |  | 43 mL/min/kg | 66 nM | 
Nc1ncc(-c2cn([C@H]3[C@@H]4CN(C5COC5)C[C@@H]43)c(CC3CC3)n2)cc1C(F)(F)F |  |  |  |  | 63 nM | 
CC(C)n1nc(-c2cnc(N)c(C(F)(F)F)c2)cc1C1CC1 |  |  |  |  | 110 nM | 

Continued, in another order:

CLint scaled at 1 µM [4] | Kp uu at 24 h [6] | CLint scaled at 1 µM [7] | CLint scaled at 1 µM [12] | Structure (SMILES) | Kd [18] | also measured
9 mL/min/kg | 0.6 | 9 mL/min/kg | 6 mL/min/kg | CC(C)c1nc(-c2cnc(N)c(OC(F)(F)F)c2)cn1C12CC(N3CCOCC3)(C1)C2 | 14 nM | half-life [1]: 3.5 h; bioavailability [2]: 80%; IC50 [13]: > 30000 nM; bioavailability [3]: 64%; Activity (Mus musculus [14]): Active; bioavailability [5]: > 100%; half-life [8]: 6.3 h; inhibition [15]: 16%; Activity (Mus musculus [16]): Active; bioavailability [9]: > 100%; half-life [10]: 22.9 h; Activity [17]: Toxic; half-life [11]: 7 h
35 mL/min/kg |  |  | 91 mL/min/kg | CC(C)C(O)c1nc(-c2cnc(N)c(OC(F)(F)F)c2)cn1C12CC(C1)C2 (centres undefined) | 0.6 nM | 
168 mL/min/kg |  | 199 mL/min/kg | 69 mL/min/kg | CC(C)c1nc(-c2cnc(N)c(C(F)(F)F)c2)cn1C12CC(C1)C2 | 49 nM | 
14 mL/min/kg | 1.1 | 26 mL/min/kg | 32 mL/min/kg | Nc1ncc(-c2cn(C34CC(C3)C4)c([C@@H](O)C(F)(F)F)n2)cc1OC(F)(F)F | 1.2 nM | AUClast [19]: 14.4 µM·h; half-life [20]: 3.5 h; IC50 [21]: 48 nM; Vd [22]: 4.6 L/kg; F ([5]; mouse, po, 10 mg/kg, 24 h): 51%; Cmax [23]: 2000 nM
233 mL/min/kg |  | 789 mL/min/kg | 133 mL/min/kg | CC(C)c1nc(-c2cnc(N)c(C(F)(F)F)c2)cn1C1CCC1 | 66 nM | 
22 mL/min/kg | 0.2 | 3 mL/min/kg | 1 mL/min/kg | CC(C)[C@H](O)c1nc(-c2cnc(N)c(OC(F)(F)F)c2)cn1C12CC(N3CCOCC3)(C1)C2 | 0.4 nM | 
